These results are taken from patent US12630829B2, “Gene encoding cytochrome P450 and use thereof” (KUMIAI CHEMICAL INDUSTRY CO., LTD., priority 2020, dated 2026).

The subject of series [1] is Arabidopsis thaliana having AK454412 introduced thereinto and wild type. The series can be described thus: Test of sensitivity to various drugs, AK454412-introduced versus wild type Arabidopsis thaliana. It counts as in vivo. As to conditions: evaluated subjectively based on drug concentration exhibiting the effect; 0, 0.1, 1, 10, 100, 1,000 nM. Here is the method: Therefore, similar tests were performed on compounds having various acting properties described in HRAC including these sulfonylurea-based ALS inhibitors to search for a compound that can be metabolically degraded by AK454412. Specifically, 61 compounds arbitrarily selected from all of the 25 classifications of HRAC 2020 were subjected to sensitivity examination in Arabidopsis thaliana having AK454412 introduced thereinto and wild type. The sensitivity to each of the drugs was evaluated subjectively with respect to every acting symptom.
As a result, compounds found to have a difference in the sensitivity between the wild type and the recombinant Arabidopsis thaliana are illustrated in FIGS. 10-1 to 10-4. It is noted that concentrations of the drug in respective wells of a plate shown in each photograph in FIGS. 10-1 to 10-4 are 0, 0.1, and 1 nM in the stated order in the rightward direction in an upper portion, and 10, 100, and 1,000 nM in the stated order in the rightward direction in a lower portion. Besides, the compound found to have a sensitivity difference are listed below.

Another series concerns CYP81A6. As to conditions: reported so far; cited from earlier work.
The conditions of series [2]: main metabolite of fenquinotrione in a wheat body; cited from earlier work.

Structures can show the parent of a compound that is named as a salt.

Consider `COc1cc(OC)nc(Oc2cccc(Oc3nc(OC)cc(OC)n3)c2C(=O)[O-])n1.[Na+]` [Bispyribac-sodium salt, bispyribac-sodium salt], for which the “approximate sensitivity difference between wild type and recombinant Arabidopsis thaliana” value in series [1] is reported as under 5.

As for `COC(=O)NS(=O)(=O)c1ccc(N)cc1` [asulam], in series [1], the “approximate sensitivity difference between wild type and recombinant Arabidopsis thaliana” value is under 10.

Turning to `COC(=O)c1ccccc1CS(=O)(=O)NC(=O)Nc1nc(OC)cc(OC)n1` [bensulfuron-methyl], the “approximate sensitivity difference between wild type and recombinant Arabidopsis thaliana” value in series [1] worked out at 10. Moreover, in the series with CYP81A6, the “metabolic reactivity of CYP81A6 against the compound” value (from here on “metabolic reactivity of CYP81A6”) was “exhibits metabolic reactivity”.

`CC(C)N1C(=O)c2ccccc2NS1(=O)=O` [bentazone]: in series [1], the “approximate sensitivity difference between wild type and recombinant Arabidopsis thaliana” value is under 5. The “metabolic reactivity of CYP81A6” value in the series on CYP81A6 is on record as “exhibits metabolic reactivity”.

For `O=C1CCCC(=O)C1C(=O)c1nc2c(Cl)cccc2n(-c2ccc(O)cc2)c1=O` [demethylated product of fenquinotrione], the herbicidal activity result in series [2] is “does not exhibit herbicidal activity”.

Turning to `O=C(Nc1ccc(F)cc1F)c1cccnc1Oc1cccc(C(F)(F)F)c1` [diflufenican], in series [1], the “approximate sensitivity difference between wild type and recombinant Arabidopsis thaliana” value was determined as 2.

On to `CS(=O)(=O)NC(=O)c1cc(Oc2ccc(C(F)(F)F)cc2Cl)ccc1[N+](=O)[O-]` [fomesafen], for which, in series [1], the “approximate sensitivity difference between wild type and recombinant Arabidopsis thaliana” value came out at 3.

Take `CC(C)C1(C)N=C(c2nc3ccccc3cc2C(=O)O)NC1=O` (centres unmarked) [imazaquin]: in series [1], the “approximate sensitivity difference between wild type and recombinant Arabidopsis thaliana” value is recorded as at most 10.

In the case of `CNc1cnn(-c2cccc(C(F)(F)F)c2)c(=O)c1Cl` [norflurazon], the “approximate sensitivity difference between wild type and recombinant Arabidopsis thaliana” value in series [1] stood at 2.

As to `CCC(CC)Nc1c([N+](=O)[O-])cc(C)c(C)c1[N+](=O)[O-]` [pendimethalin], the “approximate sensitivity difference between wild type and recombinant Arabidopsis thaliana” value in series [1] was under 100.

As to `COc1cnc(OC)n2nc(NS(=O)(=O)c3c(OCC(F)F)cccc3C(F)(F)F)nc12` [penoxsulam], the “approximate sensitivity difference between wild type and recombinant Arabidopsis thaliana” value in series [1] was determined as 100.

In the case of `O=C(Nc1ccc(F)cc1)c1cccc(Oc2cccc(C(F)(F)F)c2)n1` [picolinafen], the “approximate sensitivity difference between wild type and recombinant Arabidopsis thaliana” value in series [1] amounted to 2.

Consider `CCOC(=O)COc1cc(-c2nn(C)c(OC(F)F)c2Cl)c(F)cc1Cl` [pyraflufen-ethyl], for which the “approximate sensitivity difference between wild type and recombinant Arabidopsis thaliana” value in series [1] was 10.

On to `CO/N=C(/C)c1cccc(Oc2nc(OC)cc(OC)n2)c1C(=O)OC` [pyriminobac-methyl], for which the “metabolic reactivity of CYP81A6” value with CYP81A6 is listed as “exhibits metabolic reactivity”.

Take `COCc1cccc(C(O)c2nc(OC)cc(OC)n2)c1NS(=O)(=O)C(F)F` (centres unmarked) [pyrimisulfan]: the “approximate sensitivity difference between wild type and recombinant Arabidopsis thaliana” value in series [1] was 100. For the same compound, the “metabolic reactivity of CYP81A6” value in the series on CYP81A6 was “exhibits metabolic reactivity”.

Turning to `COc1cc(OC)nc(Sc2cccc(Cl)c2C(=O)O)n1` [pyrithiobac-sodium salt], the “approximate sensitivity difference between wild type and recombinant Arabidopsis thaliana” value in series [1] is 100.

Regarding `Cc1nn(-c2cc(NS(C)(=O)=O)c(Cl)cc2Cl)c(=O)n1C(F)F` [sulfentrazone], in series [1], the “approximate sensitivity difference between wild type and recombinant Arabidopsis thaliana” value was 10.

Take `COC(=O)c1ccccc1S(=O)(=O)NC(=O)Nc1nc(C)cc(C)n1` [sulfometuron-methyl]: in series [1], the “approximate sensitivity difference between wild type and recombinant Arabidopsis thaliana” value worked out at 5.

Regarding fluridone, the “approximate sensitivity difference between wild type and recombinant Arabidopsis thaliana” value in series [1] amounted to 2.

Turning to oxadiargyl, in series [1], the “approximate sensitivity difference between wild type and recombinant Arabidopsis thaliana” value is 2.
